± gives the expanded uncertainty stated by the source.
Experiment: mn = molality of the nth substance listed, in mol/kg
Conditions: 298.15 K; for surface tension liquid-gas: Ring tensiometer; for electrical conductivity: 101 kPa, Liquid, DDS-11A conductometer

What does the source list for `CCCCCCCCCCCC[n+]1ccn(C)c1.F[B-](F)(F)F` [1-dodecyl-3-methylimidazolium tetrafluoroborate] + O?
surface tension liquid-gas (m1 = 0.0003): 56.4 ± 0.9 mN/m; surface tension liquid-gas (m1 = 0.0006): 50.4 ± 0.9 mN/m; surface tension liquid-gas (m1 = 0.001): 43.1 ± 0.8 mN/m; surface tension liquid-gas (m1 = 0.0018): 34.3 ± 0.7 mN/m; surface tension liquid-gas (m1 = 0.003): 29.6 ± 0.7 mN/m; surface tension liquid-gas (m1 = 0.006): 28.2 ± 0.7 mN/m; surface tension liquid-gas (m1 = 0.008): 28.3 ± 0.7 mN/m; surface tension liquid-gas (m1 = 0.01): 28.2 ± 0.7 mN/m; surface tension liquid-gas (m1 = 0.018): 28.3 ± 0.7 mN/m; surface tension liquid-gas (m1 = 0.03): 28 ± 0.7 mN/m; surface tension liquid-gas (m1 = 0.06): 27.7 ± 0.7 mN/m; electrical conductivity (m1 = 0.0003): 0.0324 ± 0.002 S/m; electrical conductivity (m1 = 0.0006): 0.0346 ± 0.002 S/m; electrical conductivity (m1 = 0.001): 0.0379 ± 0.002 S/m; electrical conductivity (m1 = 0.0018): 0.0455 ± 0.002 S/m; electrical conductivity (m1 = 0.003): 0.0553 ± 0.002 S/m; electrical conductivity (m1 = 0.006): 0.0629 ± 0.002 S/m; electrical conductivity (m1 = 0.008): 0.064 ± 0.002 S/m; electrical conductivity (m1 = 0.01): 0.0653 ± 0.002 S/m; electrical conductivity (m1 = 0.018): 0.0712 ± 0.002 S/m; electrical conductivity (m1 = 0.03): 0.0809 ± 0.002 S/m; electrical conductivity (m1 = 0.04): 0.091 ± 0.002 S/m; electrical conductivity (m1 = 0.06): 0.11 ± 0.002 S/m

Which results are given for `CCCCCCCCCCCCCCCCn1cc[n+](C)c1.F[B-](F)(F)F` [1-hexadecyl-3-methylimidazolium tetrafluoroborate] + O?
surface tension liquid-gas (m1 = 1e-05): 52.9 ± 2.2 mN/m; surface tension liquid-gas (m1 = 2e-05): 47.9 ± 2 mN/m; surface tension liquid-gas (m1 = 3e-05): 43.8 ± 1.5 mN/m; surface tension liquid-gas (m1 = 5e-05): 38.4 ± 1.2 mN/m; surface tension liquid-gas (m1 = 7e-05): 34.9 ± 0.8 mN/m; surface tension liquid-gas (m1 = 0.0001): 36.7 ± 0.8 mN/m; surface tension liquid-gas (m1 = 0.0002): 37 ± 0.8 mN/m; surface tension liquid-gas (m1 = 0.0003): 36.4 ± 0.8 mN/m; surface tension liquid-gas (m1 = 0.0005): 35.2 ± 0.7 mN/m; surface tension liquid-gas (m1 = 0.0007): 35.2 ± 0.7 mN/m; electrical conductivity (m1 = 3e-06): 0.0022 ± 0.002 S/m; electrical conductivity (m1 = 5e-06): 0.0022 ± 0.0022 S/m; electrical conductivity (m1 = 7e-06): 0.0024 ± 0.002 S/m; electrical conductivity (m1 = 5e-05): 0.007 ± 0.0021 S/m; electrical conductivity (m1 = 7e-05): 0.0103 ± 0.0021 S/m; electrical conductivity (m1 = 0.0001): 0.0142 ± 0.002 S/m; electrical conductivity (m1 = 0.0002): 0.0203 ± 0.002 S/m; electrical conductivity (m1 = 0.0003): 0.0265 ± 0.002 S/m; electrical conductivity (m1 = 0.0005): 0.0372 ± 0.002 S/m; electrical conductivity (m1 = 0.0007): 0.0462 ± 0.002 S/m; electrical conductivity (m1 = 0.001): 0.0593 ± 0.002 S/m

Which surface tension liquid-gas (m1 = 0.0001) does the source give for `CCCCCCCCCCCCCCn1cc[n+](C)c1.F[B-](F)(F)F` [3-methyl-1-tetradecyl-1H-imidazol-3-ium tetrafluoroborate] + O here?
Its surface tension liquid-gas is 47.9 ± 0.9 mN/m.

What about the surface tension liquid-gas (m1 = 0.00018) of the same compound?
The surface tension liquid-gas was 41.9 ± 0.8 mN/m.

And the surface tension liquid-gas (m1 = 0.0003)?
The surface tension liquid-gas was 39 ± 0.8 mN/m.

What about the surface tension liquid-gas (m1 = 0.0006) of the same compound?
The surface tension liquid-gas was 33.6 ± 0.7 mN/m.

And the surface tension liquid-gas (m1 = 0.001)?
The surface tension liquid-gas was 29.9 ± 0.7 mN/m.

What about the surface tension liquid-gas (m1 = 0.0018) of the same compound?
Its surface tension liquid-gas is 28.4 ± 0.7 mN/m.

What about the surface tension liquid-gas (m1 = 0.003) of the same compound?
Its surface tension liquid-gas is 27.8 ± 0.7 mN/m.

And the surface tension liquid-gas (m1 = 0.006)?
Its surface tension liquid-gas is 27.6 ± 0.7 mN/m.

And the surface tension liquid-gas (m1 = 0.01)?
The surface tension liquid-gas was 27.3 ± 0.7 mN/m.

What about the surface tension liquid-gas (m1 = 0.018) of the same compound?
The surface tension liquid-gas was 27 ± 0.7 mN/m.

And the electrical conductivity (m1 = 0.0003)?
The electrical conductivity was 0.032 ± 0.002 S/m.

What about the electrical conductivity (m1 = 0.0006) of the same compound?
The electrical conductivity was 0.0344 ± 0.002 S/m.

And the electrical conductivity (m1 = 0.001)?
Its electrical conductivity is 0.036 ± 0.002 S/m.

What about the electrical conductivity (m1 = 0.0018) of the same compound?
The electrical conductivity was 0.0368 ± 0.002 S/m.

What about the electrical conductivity (m1 = 0.003) of the same compound?
The electrical conductivity was 0.0376 ± 0.002 S/m.

What about the electrical conductivity (m1 = 0.006) of the same compound?
The electrical conductivity was 0.0393 ± 0.002 S/m.

What about the electrical conductivity (m1 = 0.01) of the same compound?
The electrical conductivity was 0.0423 ± 0.002 S/m.

What about the electrical conductivity (m1 = 0.018) of the same compound?
The electrical conductivity was 0.0487 ± 0.002 S/m.

And the electrical conductivity (m1 = 0.03)?
Its electrical conductivity is 0.0543 ± 0.002 S/m.

And the electrical conductivity (m1 = 0.04)?
The electrical conductivity was 0.0633 ± 0.002 S/m.

And the electrical conductivity (m1 = 0.06)?
The electrical conductivity was 0.0732 ± 0.002 S/m.
